{
  "source": "paper PMC4858151",
  "about": "“Phosphorylation of Human Choline Kinase Beta by Protein Kinase A: Its Impact on Activity and Inhibition” (PLoS ONE, 2016)",
  "molecular_target": "T1, choline kinase beta (CKβ) (Homo sapiens, UniProt Q9Y259)",
  "T1 construct": "gene CHKB; recombinant CKβ, in vitro phosphorylated by PKA (Ser39/Ser40)",
  "T1 sequence (Q9Y259 2-395)": "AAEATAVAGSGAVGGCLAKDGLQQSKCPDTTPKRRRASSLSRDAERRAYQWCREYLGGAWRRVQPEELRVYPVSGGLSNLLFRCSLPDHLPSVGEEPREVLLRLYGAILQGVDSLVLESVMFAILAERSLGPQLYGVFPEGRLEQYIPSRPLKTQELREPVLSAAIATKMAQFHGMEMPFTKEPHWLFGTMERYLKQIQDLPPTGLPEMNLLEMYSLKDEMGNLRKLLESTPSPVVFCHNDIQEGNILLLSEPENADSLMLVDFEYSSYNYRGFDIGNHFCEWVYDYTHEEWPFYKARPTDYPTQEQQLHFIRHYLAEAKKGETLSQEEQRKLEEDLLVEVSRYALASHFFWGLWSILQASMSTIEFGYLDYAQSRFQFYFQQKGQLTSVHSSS",
  "test": "PK-LDH coupled enzyme assay, IC50 at […] choline converted to Ki",
  "type": "biochemical",
  "note": "pKi: −log10 of the molar value.",
  "data": [
    {"smiles": "C[N+]1(C)CCOC(O)(c2ccc(-c3ccc(C4(O)C[N+](C)(C)CCO4)cc3)cc2)C1", "note": "(stereo not shown) [HC-3, Hemicholinium-3]", "values": [
      {"measurement": "pKi", "result": 5.33}
    ]}
  ]
}
